{"source": "paper PMC9415894", "about": "“Development of Cross-Reactive Antibodies for the Identification and Treatment of Synthetic Cannabinoid Receptor Agonist Toxicity” (Vaccines, 2022)", "type_in_all_cases": "binding, mice", "key": {"[1]": {"system": "antibodies generated from vaccination with hapten 1", "assay": "Competitive ELISA, day 35 pooled sera of hapten 1 vaccine group", "settings": "for % Inhibition, HAPTEN 1: SCRA at 10 μM; for % Inhibition, HAPTEN 1 / IC50: day 35 pooled sera; for reactivity of hapten 1 antibodies (in words): day 35 sera; for IC50: 11 concentrations", "description": "(§1) Vaccination: Vaccine formulation consisted of our bioconjugates at 1 mg/mL (100 μg/mouse), Alum (50 μg/mouse) and a 1 mg/mL CpG ODN 1826 (50 μg/mouse) in 1X PBS solution. Vaccines were shaken at 4 °C for 45 min prior to animal use. Mock vaccines consisted of the same components with the bioconjugate replaced with native KLH. All animals were vaccinated on day zero and received two boosts, one on day 14 and one on day 28. Sera was collected from each animal on days 21 and 35 via retroorbital blood draws.\n(§2) Antibody Titers: Costar® 96-well plates were coated with 25 μL of a 5 μg/mL solution of hapten-BSA conjugate and incubated overnight at 37 °C. Plates were then methanol fixed and non-specific protein binding was blocked with 5% Blotto for 30 min. Pooled sera from either day 21 (1:100 in 5% blotto) or 35 (1:400) were added and serially diluted across the plate before incubating at 37 °C for 60 min. Plates were then washed with 1X PBS prior to the addition of secondary antibody conjugated to horse-radish peroxidase, which incubated at 37 °C for 30 min. Equal parts tetramethylbenzidine and hydrogen peroxide (50 μL) were added to each well and reacted for 15 min before being quenched with 50 μL of 2M sulfuric acid. Optical densities were determined at 450 nm using MiniMax 300 plate reader (Molecular Devices). Lastly, midpoint titers were calculated from the % optical density versus log(dilution) using the log(inhibition) vs response variable slope equation on GraphPad Prism v9 (San Diego, CA, USA).\n(§3) Competitive ELISA: Costar® 96-well plates were coated as described in the antibody titer section. After the plates are blocked, 25 μL of a 1:titer solution of each BSA-hapten conjugate is added to every well. Equal volume of a 40 μM solution of each SCRA is then added to column one, and 1:2 serially diluted concentrations added across the wells. Optical densities were determined as in titer experiments, and percent inhibitions were evaluated with GraphPad Prism 9 as in titer experiments."}, "[2]": {"system": "antibodies generated from vaccination with hapten 2", "assay": "Competitive ELISA, day 35 pooled sera of hapten 2 vaccine group", "settings": "for % Inhibition, HAPTEN 2: SCRA at 10 μM, day 35 pooled sera", "description": "as §1, §2, §3"}, "[3]": {"system": "antibodies generated following vaccination with hapten 3", "assay": "Competitive ELISA, day 35 pooled sera of hapten 3 vaccine group", "settings": "for % Inhibition, HAPTEN 3: SCRA at 10 μM; for % Inhibition, HAPTEN 3 / IC50: day 35 pooled sera; for IC50: 11 concentrations; for binding by hapten 3 antibodies (in words): day 35 sera", "description": "as §1, §2, §3"}, "[4]": {"system": "antibodies generated following vaccination with hapten 4", "assay": "Competitive ELISA, day 35 pooled sera of hapten 4 vaccine group", "settings": "for % Inhibition, HAPTEN 4: SCRA at 10 μM; for % Inhibition, HAPTEN 4 / IC50: day 35 pooled sera; for IC50: 11 concentrations; for binding by hapten 4 antibodies (in words): day 35 sera", "description": "as §1, §2, §3"}}, "data": [{"smiles": "CCCCCn1nc(C(=O)NC(C(=O)OC)C(C)C)c2ccccc21", "note": "(centres unmarked) [Compound 5, MMB-PINACA]", "values": [{"measurement": "% Inhibition, HAPTEN 1", "setting": "[1]", "result": 6.9, "unit": "%"}, {"measurement": "% Inhibition, HAPTEN 2", "setting": "[2]", "result": 25.5, "unit": "%"}, {"measurement": "% Inhibition, HAPTEN 3", "setting": "[3]", "result": 82.6, "unit": "%"}, {"measurement": "IC50", "setting": "[3]", "result": 0.269, "unit": "µM"}, {"measurement": "binding by hapten 3 antibodies (in words)", "setting": "[3]", "result": "micromolar to sub-micromolar"}, {"measurement": "% Inhibition, HAPTEN 4", "setting": "[4]", "result": 85.5, "unit": "%"}, {"measurement": "IC50", "setting": "[4]", "result": 0.334, "unit": "µM"}, {"measurement": "binding by hapten 4 antibodies (in words)", "setting": "[4]", "result": "bind"}]}, {"smiles": "CCCCCn1cc(C(=O)NC(C(=O)OC)C(C)C)c2ccccc21", "note": "(centres unmarked) [Compound 3, MMB-PICA]", "values": [{"measurement": "% Inhibition, HAPTEN 1", "setting": "[1]", "result": 0.0, "unit": "%"}, {"measurement": "% Inhibition, HAPTEN 2", "setting": "[2]", "result": 15.2, "unit": "%"}, {"measurement": "% Inhibition, HAPTEN 3", "setting": "[3]", "result": 91.8, "unit": "%"}, {"measurement": "IC50", "setting": "[3]", "result": 0.038, "unit": "µM"}, {"measurement": "binding by hapten 3 antibodies (in words)", "setting": "[3]", "result": "micromolar to sub-micromolar"}, {"measurement": "% Inhibition, HAPTEN 4", "setting": "[4]", "result": 71.0, "unit": "%"}, {"measurement": "IC50", "setting": "[4]", "result": 1.26, "unit": "µM"}, {"measurement": "binding by hapten 4 antibodies (in words)", "setting": "[4]", "result": "bind"}]}, {"smiles": "COC(=O)C(NC(=O)c1nn(CCCCCF)c2ccccc12)C(C)C", "note": "(centres unmarked) [Compound 6, 5F-AMB]", "values": [{"measurement": "% Inhibition, HAPTEN 1", "setting": "[1]", "result": 16.8, "unit": "%"}, {"measurement": "% Inhibition, HAPTEN 2", "setting": "[2]", "result": 28.7, "unit": "%"}, {"measurement": "% Inhibition, HAPTEN 3", "setting": "[3]", "result": 57.4, "unit": "%"}, {"measurement": "IC50", "setting": "[3]", "result": 3.32, "unit": "µM"}, {"measurement": "binding by hapten 3 antibodies (in words)", "setting": "[3]", "result": "micromolar to sub-micromolar"}, {"measurement": "% Inhibition, HAPTEN 4", "setting": "[4]", "result": 63.9, "unit": "%"}, {"measurement": "IC50", "setting": "[4]", "result": 2.66, "unit": "µM"}, {"measurement": "binding by hapten 4 antibodies (in words)", "setting": "[4]", "result": "bind"}]}, {"smiles": "CCCCCn1cc(C(=O)Oc2cccc3ccccc23)c2ccccc21", "note": "[Compound 8, NAPIC]", "values": [{"measurement": "% Inhibition, HAPTEN 1", "setting": "[1]", "result": 13.6, "unit": "%"}, {"measurement": "reactivity of hapten 1 antibodies (in words)", "setting": "[1]", "result": "no reactivity"}, {"measurement": "% Inhibition, HAPTEN 2", "setting": "[2]", "result": 31.5, "unit": "%"}, {"measurement": "reactivity of hapten 2 antibodies (in words)", "setting": "[2]; day 35 sera", "result": "little to no reactivity"}, {"measurement": "% Inhibition, HAPTEN 3", "setting": "[3]", "result": 19.2, "unit": "%"}, {"measurement": "% Inhibition, HAPTEN 4", "setting": "[4]", "result": 11.0, "unit": "%"}]}, {"smiles": "COC(=O)C(NC(=O)c1nn(Cc2ccc(F)cc2)c2ccccc12)C(C)C", "note": "(centres unmarked) [Compound 7, AMB-FUBINACA]", "values": [{"measurement": "% Inhibition, HAPTEN 1", "setting": "[1]", "result": 11.1, "unit": "%"}, {"measurement": "% Inhibition, HAPTEN 2", "setting": "[2]", "result": 30.7, "unit": "%"}, {"measurement": "% Inhibition, HAPTEN 3", "setting": "[3]", "result": 76.0, "unit": "%"}, {"measurement": "IC50", "setting": "[3]", "result": 0.299, "unit": "µM"}, {"measurement": "binding by hapten 3 antibodies (in words)", "setting": "[3]", "result": "sub-micromolar"}, {"measurement": "% Inhibition, HAPTEN 4", "setting": "[4]", "result": 77.7, "unit": "%"}, {"measurement": "IC50", "setting": "[4]", "result": 0.966, "unit": "µM"}, {"measurement": "binding by hapten 4 antibodies (in words)", "setting": "[4]", "result": "sub-micromolar"}]}, {"smiles": "O=C(c1cccc2ccccc12)c1cn(CCCCCF)c2ccccc12", "note": "[Compound 2, AM-2201]", "values": [{"measurement": "% Inhibition, HAPTEN 1", "setting": "[1]", "result": 79.3, "unit": "%"}, {"measurement": "IC50 for hapten 1 relative to compound 1", "setting": "[1]; compared with IC50 against compound 1", "result": "approximately five times lower"}, {"measurement": "IC50", "setting": "[1]", "result": 1.14, "unit": "µM"}, {"measurement": "reactivity of hapten 1 antibodies (in words)", "setting": "[1]", "result": "micromolar"}, {"measurement": "% Inhibition, HAPTEN 2", "setting": "[2]", "result": 29.5, "unit": "%"}, {"measurement": "% Inhibition, HAPTEN 3", "setting": "[3]", "result": 18.0, "unit": "%"}, {"measurement": "% Inhibition, HAPTEN 4", "setting": "[4]", "result": 14.4, "unit": "%"}]}, {"smiles": "CCCCCn1cc(C(=O)c2cccc3ccccc23)c2ccccc21", "note": "[Compound 1, JWH-018]", "values": [{"measurement": "% Inhibition, HAPTEN 1", "setting": "[1]", "result": 60.0, "unit": "%"}, {"measurement": "IC50", "setting": "[1]", "result": 5.54, "unit": "µM"}, {"measurement": "reactivity of hapten 1 antibodies (in words)", "setting": "[1]", "result": "micromolar"}, {"measurement": "% Inhibition, HAPTEN 2", "setting": "[2]", "result": 17.7, "unit": "%"}, {"measurement": "% Inhibition, HAPTEN 3", "setting": "[3]", "result": 14.6, "unit": "%"}, {"measurement": "% Inhibition, HAPTEN 4", "setting": "[4]", "result": 10.9, "unit": "%"}]}, {"smiles": "COC(=O)C(NC(=O)c1cn(CCCCCF)c2ccccc12)C(C)C", "note": "(centres unmarked) [Compound 4]", "values": [{"measurement": "% Inhibition, HAPTEN 1", "setting": "[1]", "result": 8.8, "unit": "%"}, {"measurement": "% Inhibition, HAPTEN 2", "setting": "[2]", "result": 19.9, "unit": "%"}, {"measurement": "% Inhibition, HAPTEN 3", "setting": "[3]", "result": 69.0, "unit": "%"}, {"measurement": "IC50", "setting": "[3]", "result": 0.744, "unit": "µM"}, {"measurement": "binding by hapten 3 antibodies (in words)", "setting": "[3]", "result": "micromolar to sub-micromolar"}, {"measurement": "% Inhibition, HAPTEN 4", "setting": "[4]", "result": 54.3, "unit": "%"}, {"measurement": "IC50", "setting": "[4]", "result": 6.69, "unit": "µM"}, {"measurement": "binding by hapten 4 antibodies (in words)", "setting": "[4]", "result": "bind"}]}]}
